In patent US20170258924A1, “Ester of a Phospholipid With Conjugated Linoleic Acid for the Treatment of Psychiatric Disorders With Neuroinflammatory and Neurodegenerative Basis” (UNIVERSITA' DEGLI STUDI DI CAGLIARI, priority 2014, published 2017):

How the values were obtained:
rat brain slices = assay: ex vivo incubation of rat brain slices, levels of PEA and OEA; assay type: cell-based; details: rat brain slices incubated ex vivo for 15, 30 or 60 min; FIG. 1
From the text: The values, mean and DS, are expressed as molar % of the total fatty acids. Different letters indicate significant differences (p<0.05); the One-way ANOVA statistical analysis was used, with Tukey test for post-hoc analysis. Similar results were obtained by using pure (99%) c9,t11 isomer.
(§1) The methods employed for the analysis of the levels of conjugated linoleic acid, PEA and OEA in vivo and in vitro are described in detail in (Melis et al. 2001) and in (Piscitelli et al. 2011), respectively.
On the contrary, WY14643 (WY), a synthetic agonist of PPAR alpha used as a comparison since it is an inductor of PPAR alpha, increases the levels of PEA and OEA by about 3-4 times (FIG. 1B).

frontal cortex of mice = assay: in vivo administration to mice, levels of OEA in the frontal cortex; details: acute administration 12 hours prior to sacrifice, FIG. 2
From the text: The values, mean and DS, are expressed as pmoles/g tissue. Different letters indicate significant differences (p<0.05); the One-way ANOVA statistical analysis was used, with Tukey test for post-hoc analysis.
as §1
(§2) Since astrocytes are involved in neuroinflammation, the action of CLA (80% c9,t11 isomer) was also verified in cultures of astrocytes after having induced neuroinflammation with LPS. Oleic acid was used as a control.

TNF alpha in astrocytes = assay: TNF alpha in cultures of astrocytes after induced neuroinflammation with LPS; assay type: cell-based; details: treatment then LPS, oleic acid as control, p<0.05, FIG. 3
From the text: as §2

TNF alpha in microglia = TNF alpha in microglia in vitro; assay type: cell-based
From the text: The PEA and OEA increase, since it sustains PPAR alpha activation, is crucial for the physiologic response to neuroinflammatory events, in addition to preserving the homeostasis of the dopaminergic system. In fact, CLA can reduce in vitro the levels of TNF alpha in both astrocytes and microglia.

Compound | increase of the levels of OEA (rat brain slices) | increase of the levels of PEA (rat brain slices) | levels of OEA in the frontal cortex (frontal cortex of mice) | TNF alpha in cultured astrocytes (TNF alpha in astrocytes) | TNF alpha in cultured astrocytes (TNF alpha in astrocytes; listed as CLA) | levels of TNF alpha in microglia (TNF alpha in microglia)
Cc1cccc(Nc2cc(Cl)nc(SCC(=O)O)n2)c1C [WY14643, reference compound] | 3-4 times | 3-4 times | – | – | – | –
conjugated linoleic acid [CLA (80% c9,t11 isomer)] | about 5 times | about 5 times | significantly increases | significant decrease | reduce | reduce
